The text below walks through data of US11325899B2, “Benzofurane and benzothiophene derivatives as PGE2 receptor modulators” (IDORSIA PHARMACEUTICALS LTD, priority 2017, dated 2022).

One assay deals with T1, PTGER4 (EP4) (Homo sapiens, UniProt P35408).
T1 construct: host or cells: HEK 293 (PathHunter PTGER4 b-arrestin cell line)
The assay is described as follows: hEP4 b-arrestin assay (PathHunter HEK 293 PTGER4 b-arrestin cells). Format: cell-based. As to conditions: antagonistic activity, beta-arrestin assay; read-out: hEP4 b-arr IC50. How it is done:
(§1) The antagonistic activities of the compounds of formula (I) on the EP2 and EP4 receptors are determined in accordance with the following experimental method.
(§2) The assay is using the PathHunter™ HEK 293 PTGER2 and PTGER4 b-arrestin cell lines from DiscoverX. The system is based on the Enzyme Fragment Complementation Technology. Two complementing fragments of the b-galactosidase enzyme are expressed within stably transfected cells. The larger portion of b-gal, termed EA for Enzyme Acceptor, is fused to the C-terminus of b-arrestin 2. The smaller fragment, termed ProLink™ tag, is fused to PTGER2 (EP2) or PTRGER4 (EP4) at the C-terminus. Upon activation, b-arrestin is recruited which forces the interaction of ProLink and EA, allowing complementation of the two fragments of b-gal and the formation of a functional enzyme which is capable of hydrolysing the substrate and generating a chemiluminescent signal.
The HEK 293 PTGER4 b-arrestin cells (DiscoverX 93-030-4C1) are detached from culture dishes with a cell dissociation buffer (Invitrogen, 13151-014), and collected in growing medium (GM: DMEM+Glutamax-I (Invitrogen 32430)/10% FCS, 1% Penicilin/streptomycin). 5000 cells per well of a 384 well plate (white with white bottom Greiner 781080) are seeded in 20 ul per well of GM. Plate is incubated at 37° C., 5% C02 for 24 hours.
(§3) Stock solutions of test compounds are made at a concentration of 10 mM in DMSO, and serially diluted in DMSO to concentrations required for inhibition dose response curves (tested concentration range 10 μM-2 nM or 1 μM-0.2 nM).
PGE2 (Cayman 14010, stock solution: 100 uM in DMSO) is used as agonist at 20 nM final concentration, corresponding to EC80.
Five microliters of diluted compounds are transferred into the assay plate. Plate is pre-incubated 15 minutes at 37° C. Then five microliters of PGE2 (final conc. 20 nM) are transferred into the assay plate. Plate is incubated 120 minutes at 37° C.
(§4) PathHunter Glo Detection Kit components are thawed and mix according to manufacturer's instructions: 1 part Galacton Star Substrate with 5 parts Emerald II™ Solution, and 19 parts of PathHunter Cell Assay Buffer, respectively. Twelve μl of reagent are transferred to the assay plate and incubate for 1 hour at room temperature in the dark. Luminescence counts are read on a BMG Fluostar Optima reader according to manufacturer's instructions.
(§5) For each compound concentration calculate of the percentage of activity compared to DMSO control value as average±STDEV. (each concentration is measured in duplicate)
(§6) IC50 values and curves are generated with XLfit software (IDBS) using Dose-Response One Site model 203. When compounds were measured multiple times, mean values are given.

In a further assay the target is T2, PTGER2 (EP2) (Homo sapiens, UniProt P43116).
T2 construct: host or cells: HEK 293 (PathHunter PTGER2 b-arrestin cell line)
The assay is described as follows: hEP2 b-arrestin assay (PathHunter HEK 293 PTGER2 b-arrestin cells). As to conditions: antagonistic activity, beta-arrestin assay; read-out: hEP2 b-arr IC50. Format: cell-based. How it is done:
as §1, §2
The HEK 293 PTGER2 b-arrestin cells (DiscoverX 93-021-4C1) are detached from culture dishes with a cell dissociation buffer (Invitrogen, 13151-014), and collected in growing medium (GM: DMEM+Glutamax-I (Invitrogen 32430)/10% FCS, 1% Penicilin/streptomycin). 5000 cells per well of a 384 well plate (white with white bottom Greiner 781080) are seeded in 20 ul per well of GM. Plate is incubated at 37° C., 5% C02 for 24 hours.
as §3
PGE2 (Cayman 14010, stock solution: 10 mM in DMSO) is used as agonist at 5 μM final concentration, corresponding to EC80.
Five microliters of diluted compounds are transferred into the assay plate. Plate is pre-incubated 15 minutes at 37° C. Then five microliters of PGE2 (final conc. 5 μM) are transferred into the assay plate. Plate is incubated 120 minutes at 37° C.
as §4, §5, §6

T2 sequence (P43116 whole entry): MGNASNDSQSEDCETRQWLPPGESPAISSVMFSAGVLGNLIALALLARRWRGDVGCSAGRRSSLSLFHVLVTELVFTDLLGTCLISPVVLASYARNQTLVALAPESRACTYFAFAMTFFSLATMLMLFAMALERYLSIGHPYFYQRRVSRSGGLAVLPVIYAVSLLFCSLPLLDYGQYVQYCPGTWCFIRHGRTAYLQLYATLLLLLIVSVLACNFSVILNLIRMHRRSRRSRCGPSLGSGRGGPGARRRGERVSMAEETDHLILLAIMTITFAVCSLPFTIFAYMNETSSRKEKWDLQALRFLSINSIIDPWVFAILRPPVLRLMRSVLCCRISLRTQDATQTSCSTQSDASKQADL
T1 sequence (P35408 whole entry): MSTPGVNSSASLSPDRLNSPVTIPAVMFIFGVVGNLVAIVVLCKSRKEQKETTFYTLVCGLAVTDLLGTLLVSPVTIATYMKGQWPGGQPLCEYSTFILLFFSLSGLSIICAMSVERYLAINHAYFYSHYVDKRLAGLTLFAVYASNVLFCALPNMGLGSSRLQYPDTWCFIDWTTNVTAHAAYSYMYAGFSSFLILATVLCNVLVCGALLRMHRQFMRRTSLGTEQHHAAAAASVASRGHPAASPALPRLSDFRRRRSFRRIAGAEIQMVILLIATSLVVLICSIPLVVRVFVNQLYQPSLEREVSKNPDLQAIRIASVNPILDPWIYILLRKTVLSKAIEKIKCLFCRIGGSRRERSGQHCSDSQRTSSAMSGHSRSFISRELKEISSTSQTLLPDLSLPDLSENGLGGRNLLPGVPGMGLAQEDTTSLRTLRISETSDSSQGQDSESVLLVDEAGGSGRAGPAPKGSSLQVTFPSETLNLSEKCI

Consider `Cc1sc2c(C)cc(F)cc2c1CCNc1cc(-c2ccc(/C=C/C(=O)O)cc2)ncn1` [Example 204, (E)-3-(4-{6-[2-(5-Fluoro-2,7-dimethyl-benzo[b]thiophen-3-yl)-ethylamino]-pyrimidin-4-yl}-phenyl)-acrylic acid], for which the IC50 at PTGER4 (EP4) was 1030 nM; on PTGER2 (EP2) it was 108 nM.

`Cc1[nH]c(-c2cc(NCCc3c(C)sc4c(C)cc(F)cc34)ncn2)cc1C(=O)O` [Example 205, 5-{6-[2-(5-Fluoro-2,7-dimethyl-benzo[b]thiophen-3-yl)-ethylamino]-pyrimidin-4-yl}-2-methyl-1 H-pyrrole-3-carboxylic acid]: the results for the IC50 on PTGER4 (EP4) and at PTGER2 (EP2) were 771 nM and 74 nM, respectively.

For `CCCc1cc(-c2cc(NCCc3c(C)sc4c(C)cc(F)cc34)ncn2)ccc1C(N)=O` [Example 206, 4-{6-[2-(5-Fluoro-2,7-dimethyl-benzo[b]thiophen-3-yl)-ethylamino]-pyrimidin-4-yl}-2-propyl-benzamide], the half-maximal inhibitory concentration (IC50) on PTGER4 (EP4) worked out at 288 nM; on PTGER2 (EP2), 10 nM.

`CCCc1cc(-c2cc(NCCc3c(C)sc4c(C)cc(F)cc34)ncn2)ccc1C(=O)NCC(C)(C)O` [Example 207, 4-{6-[2-(5-Fluoro-2,7-dimethyl-benzo[b]thiophen-3-yl)-ethylamino]-pyrimidin-4-yl}-N-(2-hydroxy-2-methyl-propyl)-2-propyl-benzamide]: the IC50 at PTGER4 (EP4) came to 335 nM; at PTGER2 (EP2), 26 nM.

For `CCCc1cc(-c2cc(NCCc3c(C)sc4c(C)cc(F)cc34)ncn2)ccc1C(=O)NCCOC` [Example 208, 4-{6-[2-(5-Fluoro-2,7-dimethyl-benzo[b]thiophen-3-yl)-ethylamino]-pyrimidin-4-yl}-N-(2-methoxy-ethyl)-2-propyl-benzamide], the IC50 worked out at 837 nM at PTGER4 (EP4) and 62 nM at PTGER2 (EP2).

As to `CCCc1cc(-c2cc(NCCc3c(C)sc4c(C)cc(F)cc34)ncn2)ccc1C(=O)NCCO` [Example 209, 4-{6-[2-(5-Fluoro-2,7-dimethyl-benzo[b]thiophen-3-yl)-ethylamino]-pyrimidin-4-yl}-N-(2-hydroxy-ethyl)-2-propyl-benzamide], the 50% inhibitory concentration (IC50) is 280 nM at PTGER4 (EP4) and 8 nM on PTGER2 (EP2).

Turning to `CCCc1cc(-c2cc(NCCc3c(C)sc4c(C)cc(F)cc34)ncn2)ccc1C(=O)NC` [Example 210, 4-{6-[2-(5-Fluoro-2,7-dimethyl-benzo[b]thiophen-3-yl)-ethylamino]-pyrimidin-4-yl}-N-methyl-2-propyl-benzamide], the IC50 at PTGER4 (EP4) stood at 469 nM; on PTGER2 (EP2), 19 nM.

Consider `CCOc1cc(-c2cc(NCCc3c(C)sc4c(C)cc(F)cc34)ncn2)ccc1C(=O)NCCO` [Example 211, 2-Ethoxy-4-{6-[2-(5-fluoro-2,7-dimethyl-benzo[b]thiophen-3-yl)-ethylamino]-pyrimidin-4-yl}-N-(2-hydroxy-ethyl)-benzamide], for which the IC50 at PTGER4 (EP4) is 367 nM; at PTGER2 (EP2), 30 nM.

`CCOc1cc(-c2cc(NCCc3c(C)sc4c(C)cc(F)cc34)ncn2)ccc1C(=O)NC` [Example 212, 2-Ethoxy-4-{6-[2-(5-fluoro-2,7-dimethyl-benzo[b]thiophen-3-yl)-ethylamino]-pyrimidin-4-yl}-N-methyl-benzamide]: the half-maximal inhibitory concentration (IC50) came to 667 nM on PTGER4 (EP4) and 11 nM at PTGER2 (EP2).

Take `CCOc1cc(-c2cc(NCCc3c(C)sc4c(C)cc(F)cc34)ncn2)ccc1C(N)=O` [Example 213, 2-Ethoxy-4-{6-[2-(5-fluoro-2,7-dimethyl-benzo[b]thiophen-3-yl)-ethylamino]-pyrimidin-4-yl}-benzamide]: the half-maximal inhibitory concentration (IC50) at PTGER4 (EP4) amounted to 405 nM; at PTGER2 (EP2), 10 nM.

Consider `Cc1sc2c(C)cc(F)cc2c1CCNc1cc(-c2cnn(C(C)(C)C(=O)O)c2)ncn1` [Example 214, 2-(4-{6-[2-(5-Fluoro-2,7-dimethyl-benzo[b]thiophen-3-yl)-ethylamino]-pyrimidin-4-yl}-pyrazol-1-yl)-2-methyl-propionic acid], for which the IC50 at PTGER4 (EP4) was found to be 388 nM; at PTGER2 (EP2), 237 nM.

What is called IC50 is the point on the concentration scale where inhibition reaches its midpoint.
